A word on the Kd: it is the equilibrium constant for the complex coming apart.

Bounds are passed on as bounds.

These results are taken from US5606020A, “6 (R)-l-erythro-5,6,7,8-tetrahydrobiopterin receptor” (Suntory Limited, priority 1991, dated 1997).

For experiment [1] the following is noted: supplementation therapy; cited from earlier work.
For experiment [2], the target named is known enzymes which participate in the biosynthesis of 6R-BH4 or enzymes for which 6R-BH4 acts as a coenzyme. The settings on record: enzymes of 6R-BH4 biosynthesis or using 6R-BH4 as coenzyme; cited from earlier work.
Experiment [3] concerns the target T1, 6R-BH4 receptor (Rattus norvegicus, UniProt P29476).
T1 construct: solubilized fraction of rat cerebellum; from tissue; host or cells: rat cerebellum, P2 membrane fraction solubilized with CHAPS (not purified)
Briefly: Scatchard plot analysis of [6-^3 H]6R-BH4 binding to solubilized fraction of rat cerebellum. The procedure: The Scatchard plot analysis may be carried out, for example, as follows. In an appropriate buffer solution, for example, 50 mM Tris hydrochloride (pH 7.4), 100 mM NaCl, 10 mM MgCl2, 2 mM ascorbic acid and 6 mM cysteine solution, a fraction containing the receptor solubilized with CHAPS is incubated with [6-^3 H]6R-BH4 at various concentrations under appropriate conditions, for example, at 37° C. for 10 minutes. Then the radioactivity is measured by a conventional method and plotted. From the plots, Kd (dissociation constant) and Bmax are determined and employed as indicators of the affinity.
By using a determined amount of the solubilized fraction of rat cerebellum, Scatchard plot analysis with regard to the solubilized receptor protein of the present invention was performed by the conventional method. […]
The reaction mixture was cooled on ice for 10 minutes and then filtered through a glass filter. […] 2 ml of ethanol and 8 ml of creasol (Nacalai Tesque) were added to the filter and the radioactivity on the filter was measured in a liquid scintillation counter.
FIG. 4 is a graph showing the radioactivities which bound to the receptor when [6-^3 H]6R-BH4 was added at various concentrations to a determined amount of the solubilized receptor. […] Accordingly, the saturation of the specific binding can be calculated as the difference between the total and nonspecific bindings. […]

Experiment [4] concerns release of neurotransmitter amines such as dopamine (DA), norepinephrine and serotonin. The experiment is described as follows: Release and liberation of neurotransmitters.
The target in experiment [5] is T1, 6R-BH4 receptor. The experiment is described as follows: Competitive binding test between various compounds and 13 nM [6-^3 H]6R-BH4, solubilized fraction of rat cerebellum. The settings on record: for affinity of the receptor to 6R-BH4 relative to its affinity to the compound (from IC50 data): 13 nM [6-^3 H]6R-BH4, solubilized fraction of rat cerebellum. The procedure: The specificity of the receptor of the present invention in binding to 6R-BH4 can be confirmed by a competitive binding test with the use of various compounds at varying concentrations.
In this method, the above-mentioned compounds at varying concentrations (for example, biopterin as will be described in Example 6 hereinafter) are added as a ligand simultaneously with [6-^3 H]6R-BH4 to the reaction mixture and the reaction is performed. The ability of the receptor of the present invention to bind to 6R-BH4 will not be inhibited to any substantial extent by these ligands.
By using the solubilized fraction of rat cerebellum, a competitive binding test between various compounds at varying concentrations and 13 nM of [6-^3 H]6R-BH4 was carried out.
About 0.3 mg (protein) of the solubilized fraction obtained in Example 3 was incubated together with 13 nM of [6-^3 H]6R-BH4 in a 200 μl solution of 50 mM Tris hydrochloride (pH 7.4), 100 mM NaCl, 10 mM MgCl2, 2 mM ascorbic acid and 6 mM cysteine at 37° C. for 10 minutes. Then 3 mg/ml (final concentration) of bovine γ-globulin and 15% (final concentration) of polyethylene glycol 6000 were added to cease the reaction.
Next, the reaction mixture was cooled on ice for 10 minutes and then passed through a glass filter. After being washed 4 times with 4 ml portions of 8% polyethylene glycol and 10 mM Tris hydrochloride (pH 7.4), the filter was taken off and placed in a vial. 2 ml of ethanol and 8 ml of creasol (Nacalai Tesque) were added to the filter and the radioactivity on the filter was measured in a liquid scintillation counter.
The results thus obtained were referred to as total binding. Then various compounds at varying concentrations were added as a ligand simultaneously with [6-^3 H]6R-BH4 in the above procedure, and the reaction was effected.

T1 sequence (P29476 whole entry): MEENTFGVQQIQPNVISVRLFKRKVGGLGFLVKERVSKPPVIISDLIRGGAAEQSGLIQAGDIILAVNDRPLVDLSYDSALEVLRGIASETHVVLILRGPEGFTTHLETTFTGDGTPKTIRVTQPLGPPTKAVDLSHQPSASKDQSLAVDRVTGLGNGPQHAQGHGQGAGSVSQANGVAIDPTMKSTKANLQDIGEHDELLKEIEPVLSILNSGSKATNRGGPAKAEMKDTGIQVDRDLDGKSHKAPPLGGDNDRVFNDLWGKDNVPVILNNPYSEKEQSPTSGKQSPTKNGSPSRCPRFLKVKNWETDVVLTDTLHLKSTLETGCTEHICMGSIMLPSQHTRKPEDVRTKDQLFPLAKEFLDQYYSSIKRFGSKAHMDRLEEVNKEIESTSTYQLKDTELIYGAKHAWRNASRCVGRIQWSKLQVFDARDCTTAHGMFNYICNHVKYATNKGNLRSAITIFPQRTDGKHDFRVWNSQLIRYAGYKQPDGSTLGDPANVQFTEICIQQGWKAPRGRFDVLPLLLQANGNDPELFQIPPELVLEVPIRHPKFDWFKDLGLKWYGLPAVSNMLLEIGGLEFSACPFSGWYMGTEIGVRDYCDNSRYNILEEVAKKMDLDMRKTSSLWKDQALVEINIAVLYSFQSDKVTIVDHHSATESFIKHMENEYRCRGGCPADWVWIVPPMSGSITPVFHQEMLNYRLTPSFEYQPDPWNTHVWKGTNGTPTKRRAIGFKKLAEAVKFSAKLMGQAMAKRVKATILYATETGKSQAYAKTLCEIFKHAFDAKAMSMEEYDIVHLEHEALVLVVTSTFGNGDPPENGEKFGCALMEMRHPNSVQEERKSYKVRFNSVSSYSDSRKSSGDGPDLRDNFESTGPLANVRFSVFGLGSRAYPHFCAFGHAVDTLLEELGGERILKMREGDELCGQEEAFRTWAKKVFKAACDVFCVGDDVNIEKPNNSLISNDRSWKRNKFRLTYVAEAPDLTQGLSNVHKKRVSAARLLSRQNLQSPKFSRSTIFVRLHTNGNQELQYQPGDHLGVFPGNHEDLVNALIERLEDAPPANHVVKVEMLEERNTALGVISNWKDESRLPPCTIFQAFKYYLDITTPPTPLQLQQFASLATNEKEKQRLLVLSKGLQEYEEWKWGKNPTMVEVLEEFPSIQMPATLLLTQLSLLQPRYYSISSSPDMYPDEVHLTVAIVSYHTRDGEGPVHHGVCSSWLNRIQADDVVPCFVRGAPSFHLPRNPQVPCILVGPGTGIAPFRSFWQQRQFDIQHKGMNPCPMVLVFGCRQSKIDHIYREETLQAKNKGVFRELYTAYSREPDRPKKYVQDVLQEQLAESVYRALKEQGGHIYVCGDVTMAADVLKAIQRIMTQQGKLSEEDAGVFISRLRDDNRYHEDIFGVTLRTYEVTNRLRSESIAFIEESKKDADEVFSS

In the case of `C[C@H](O)[C@H](O)[C@H]1CNc2nc(N)[nH]c(=O)c2N1` [6R-BH4, 6(R)-L-erythro-5,6,7,8-tetrahydrobiopterin], the “treatment of malignant phenylketonuria, juvenile Parkinson's disease and infantile autism of the dysbolism type” value in experiment [1] is “effective”. For the same molecule, the “Kd for known enzymes” value in experiment [2] was “several ten”. Besides, the “Bmax (maximum binding constant)” value at 6R-BH4 receptor [3] stood at 550 fmol/mg protein. In addition, the Kd at 6R-BH4 receptor [3] (37° C. for 10 minutes, read-out: Kd (dissociation constant)) is 0.021 µM. In experiment [4], the “liberation of glutamic acid, aspartic acid or GABA via DA and release of acetylcholine via serotonin” value is “enhances”; the “release and liberation of neurotransmitter amines such as dopamine (DA), norepinephrine and serotonin” value is listed as “enhances”.
As to `C[C@H](O)[C@H](O)[C@@H]1CNc2nc(N)[nH]c(=O)c2N1` [6S-BH4], the “affinity of the receptor to 6R-BH4 relative to its affinity to the compound (from IC50 data)” value on 6R-BH4 receptor [5] is recorded as > 1,000 times.
The same measure, in the same setting: the entry for `C[C@H](O)[C@H](O)C1=Nc2c(nc(N)[nH]c2=O)NC1` [BH2, 7,8-dihydrobiopterin] is “more than 50 times”.
`Nc1nc2c(c(=O)[nH]1)NC(CNc1ccc(C(=O)N[C@@H](CCC(=O)O)C(=O)O)cc1)CN2` (stereo partly drawn) [FAH4, tetrahydrofolic acid]: at 6R-BH4 receptor [5] (competitive binding, solubilized fraction of rat cerebellum), the “binding ability to the receptor” value is “does not show any substantial binding ability”.
